Measurements published in paper PMC3681807 (Neuropharmacology, 2013).
“Also recorded” adds a separate entry of the source. Like-named read-outs stand apart in the source and are kept apart here.

What was measured:
DAT/SERT = conditions: ref Simmler et al., 2013; cited from earlier work
Male Wistar rats [1] = test: intravenous self-administration acquisition; assay type: in vivo, rat; conditions: for infusion rate (M) / lever discrimination (M): 0.05 mg/kg/inf, FR5, 7 non-food-restricted sessions; for self-administered drug, Max / self-administered drug, Mean: 0.05 mg/kg/infusion i.v., within 10 training sessions; for level of drug intake from session to session: during acquisition
Male Wistar rats [2] = test: fixed-ratio; assay type: in vivo, rat
Male Wistar rats [3] = test: progressive-ratio dose-response self-administration testing; assay type: in vivo, rat; conditions: for number of correct lever presses (M) / post-reinforcement pause duration (M) / time to reach breakpoint: PR; for number of correct lever presses (M) / post-reinforcement pause duration (M): 1st 3 hours of session
Male Wistar rats [4] = test: locomotor activity by radiotelemetry after non-contingent s.c. administration; assay type: in vivo, rat; conditions: for maximal increase of activity over baseline and/or vehicle: lower doses
Male Wistar rats [5] = test: body temperature by radiotelemetry after non-contingent s.c. administration; assay type: in vivo, rat; conditions: for effect on body temperature: 0–5.6 mg/kg s.c., MDPV at TA about 23 °C
[6] = test system: alpha adrenergic receptors; conditions: ref Roth et al., 2000, Rothman et al., 2001, 2003; cited from earlier work
Male Wistar rats [7] = test: stereotypy after self-administration sessions; assay type: in vivo, rat; conditions: FR5 dose-response testing
Male Wistar rats [8] = test: stereotypy scores after non-contingent administration; assay type: in vivo, rat
[9] = test system: dopamine transporter (DAT); conditions: rat synaptosomes; ref Baumann et al., 2013; cited from earlier work
[10] = test system: noradrenaline transporter (NET); conditions: rat synaptosomes; ref Baumann et al., 2013; cited from earlier work
[11] = test system: serotonin transporter (SERT); conditions: rat synaptosomes; ref Baumann et al., 2013; cited from earlier work
[12] = test system: dopamine transporter (DAT); conditions: human transporters expressed by HEK 293 cells; ref Simmler et al., 2013; cited from earlier work
[13] = test system: noradrenaline transporter (NET); conditions: human transporters expressed by HEK 293 cells; ref Simmler et al., 2013; cited from earlier work
[14] = test system: serotonin transporter (SERT); conditions: human transporters expressed by HEK 293 cells; ref Simmler et al., 2013; cited from earlier work
monoamine release = conditions: ref Baumann et al., 2013, Simmler et al.; cited from earlier work
Sprague-Dawley rats = conditions: s.c.; ref Baumann et al., 2013; cited from earlier work
mice = conditions: i.p.; ref Marusich et al., 2012; cited from earlier work
[15] = target: noradrenergic transporter (Homo sapiens, UniProt P23975); test: biochemical
serotonin transporter = serotonin transporter (Homo sapiens, UniProt P31645); test: biochemical
[16] = FR5, per-infusion dose 0.01 mg/kg
[17] = FR5, per-infusion dose 0.05 mg/kg
[18] = FR5, per-infusion dose 0.10 mg/kg
[19] = FR5, per-infusion dose 0.25 mg/kg
[20] = 1.0 mg/kg s.c., MDPV 30- and 60-min bins, METH 30-, 90- and 120-min bins
[21] = 1.0 mg/kg s.c., MDPV 180-min bin, METH 30- to 120-min bins
[22] = 5.6 mg/kg s.c., summed deviations from mean of vehicle
[23] = FR5, per-infusion dose 0.50 mg/kg

Sequence of serotonin transporter (P31645 whole entry, the tested form may be a part): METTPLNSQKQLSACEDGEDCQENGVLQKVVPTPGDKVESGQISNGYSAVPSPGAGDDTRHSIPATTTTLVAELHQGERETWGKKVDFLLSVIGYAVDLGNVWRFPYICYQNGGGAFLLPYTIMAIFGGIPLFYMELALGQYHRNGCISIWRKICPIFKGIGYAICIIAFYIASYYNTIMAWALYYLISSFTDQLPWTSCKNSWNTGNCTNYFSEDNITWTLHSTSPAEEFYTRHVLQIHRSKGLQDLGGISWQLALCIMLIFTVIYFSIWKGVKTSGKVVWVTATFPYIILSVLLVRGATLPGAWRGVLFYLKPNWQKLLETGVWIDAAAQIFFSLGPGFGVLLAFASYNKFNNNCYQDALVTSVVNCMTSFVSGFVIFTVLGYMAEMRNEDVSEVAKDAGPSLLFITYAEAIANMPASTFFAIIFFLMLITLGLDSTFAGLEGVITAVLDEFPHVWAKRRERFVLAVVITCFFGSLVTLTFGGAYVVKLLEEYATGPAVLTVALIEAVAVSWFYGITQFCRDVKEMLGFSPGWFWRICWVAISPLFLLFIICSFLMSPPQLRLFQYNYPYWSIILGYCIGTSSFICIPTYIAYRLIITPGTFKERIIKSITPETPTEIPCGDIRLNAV
Sequence of noradrenergic transporter (P23975 whole entry): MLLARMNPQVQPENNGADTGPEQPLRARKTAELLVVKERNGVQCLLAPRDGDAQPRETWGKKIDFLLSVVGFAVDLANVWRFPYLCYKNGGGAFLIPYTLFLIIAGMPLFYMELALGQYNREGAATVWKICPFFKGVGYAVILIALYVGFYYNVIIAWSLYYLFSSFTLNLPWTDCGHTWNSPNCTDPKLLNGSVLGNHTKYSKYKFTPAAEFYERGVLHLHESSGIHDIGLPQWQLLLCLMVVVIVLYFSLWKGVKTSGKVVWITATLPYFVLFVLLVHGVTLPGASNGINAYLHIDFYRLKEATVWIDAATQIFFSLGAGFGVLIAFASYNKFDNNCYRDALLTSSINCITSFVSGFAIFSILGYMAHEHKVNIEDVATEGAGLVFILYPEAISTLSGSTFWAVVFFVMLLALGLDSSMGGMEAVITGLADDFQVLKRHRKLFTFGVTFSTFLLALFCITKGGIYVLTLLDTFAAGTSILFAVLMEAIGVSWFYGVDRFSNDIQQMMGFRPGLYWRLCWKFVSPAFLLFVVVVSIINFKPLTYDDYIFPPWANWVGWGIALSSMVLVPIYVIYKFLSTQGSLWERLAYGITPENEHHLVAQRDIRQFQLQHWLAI

COC(=O)[C@H]1[C@@H](OC(=O)c2ccccc2)C[C@@H]2CC[C@H]1N2C [cocaine]
DAT/SERT inhibition ratio (DAT/SERT): 3.1

CN[C@@H](C)Cc1ccccc1 [METH, d-methamphetamine, reference compound]
infusion rate (M) (Male Wistar rats [1]): 8 inf/hr
lever discrimination (M) (Male Wistar rats [1]): 83%
self-administered drug, Max (Male Wistar rats [1]): 1.15 mg/kg/h
self-administered drug, Mean (Male Wistar rats [1]): 0.4 mg/kg/h
level of drug intake from session to session (Male Wistar rats [1]): ~ 0.5 mg/kg/hr
infusion rate (M) (Male Wistar rats [2]; [16]): 8 infusions/hour
post-reinforcement pause length (M) (Male Wistar rats [2]; [16]): 94 s
infusion rate (M) (Male Wistar rats [2]; [17]): 6 infusions/hour
post-reinforcement pause length (M) (Male Wistar rats [2]; [17]): 106 s
infusion rate (M) (Male Wistar rats [2]; [18]): 5 infusions/hour
post-reinforcement pause length (M) (Male Wistar rats [2]; [18]): 170 s
infusion rate (M) (Male Wistar rats [2]; [19]): 4 infusions/hour
post-reinforcement pause length (M) (Male Wistar rats [2]; [19]): 162 s
number of correct lever presses (M) (Male Wistar rats [3]; per-infusion dose 0.01 mg/kg): 60
post-reinforcement pause duration (M) (Male Wistar rats [3]; per-infusion dose 0.01 mg/kg): 276 s
number of correct lever presses (M) (Male Wistar rats [3]; per-infusion dose 0.05 mg/kg): 74
post-reinforcement pause duration (M) (Male Wistar rats [3]; per-infusion dose 0.05 mg/kg): 103 s
number of correct lever presses (M) (Male Wistar rats [3]; per-infusion dose 0.10 mg/kg): 250
post-reinforcement pause duration (M) (Male Wistar rats [3]; per-infusion dose 0.10 mg/kg): 113 s
number of correct lever presses (M) (Male Wistar rats [3]; per-infusion dose 0.25 mg/kg): 135
post-reinforcement pause duration (M) (Male Wistar rats [3]; per-infusion dose 0.25 mg/kg): 490 s
locomotor activity compared with vehicle (Male Wistar rats [4]; [20]): higher
locomotor activity compared with vehicle (Male Wistar rats [4]; 5.6 mg/kg s.c., 60–150-min post-injection time bins): lower
resolution of high-dose suppression of locomotion (Male Wistar rats [4]): 150–180 minutes post-injection
duration of significant low-dose locomotor stimulation (Male Wistar rats [4]): 120 minutes post-injection
maximal increase of activity over baseline and/or vehicle (Male Wistar rats [4]): about 4 fold
effect on body temperature (Male Wistar rats [5]): increased monotonically
body temperature compared to pre-injection baseline (Male Wistar rats [5]; [21]): higher
body temperature compared to vehicle (Male Wistar rats [5]; 5.6 mg/kg s.c., 60- to 150-min time bins): higher
body temperature compared to pre-injection baseline (Male Wistar rats [5]; 5.6 mg/kg s.c., 60- to 90-min post-injection time bins): higher
AUC for body temperature, METH vs MDPV (Male Wistar rats [5]; [22]): higher for METH than for MDPV
average body temperature as a function of dose (Male Wistar rats [5]; 20±2 °C TA): did not vary as a function of drug condition
average body temperature as a function of dose (Male Wistar rats [5]; TA of 25±2 °C, doses in mg/kg s.c.): 5.6 > 1.0 > vehicle
DAT/SERT inhibition ratio (DAT/SERT): > 10
binding affinity [6]: low affinity binding

CCCC(C(=O)c1ccc2c(c1)OCO2)N1CCCC1 (centres unmarked) [MDPV, 1-(1,3-benzodioxol-5-yl)-2-(1-pyrrolidinyl)-1-pentanone]
infusion rate (M) (Male Wistar rats [1]): 19 inf/hr
lever discrimination (M) (Male Wistar rats [1]): 86%
self-administered drug, Max (Male Wistar rats [1]): 5.8 mg/kg/h
self-administered drug, Mean (Male Wistar rats [1]): 0.9 mg/kg/h
level of drug intake from session to session (Male Wistar rats [1]): ~ 1 mg/kg/hr
reward-lever selectivity (Male Wistar rats [1]; for most rats): > 80%
infusion rate (M) (Male Wistar rats [2]; [16]): 35 infusions/hour
post-reinforcement pause length (M) (Male Wistar rats [2]; [16]): 48 s
infusion rate (M) (Male Wistar rats [2]; [17]): 13 infusions/hour
post-reinforcement pause length (M) (Male Wistar rats [2]; [17]): 107 s
infusion rate (M) (Male Wistar rats [2]; [18]): 8 infusions/hour
post-reinforcement pause length (M) (Male Wistar rats [2]; [18]): 223 s
infusion rate (M) (Male Wistar rats [2]; [23]): 4 infusions/hour
post-reinforcement pause length (M) (Male Wistar rats [2]; [23]): 572 s
potency on drug-reinforced behavior compared with METH (Male Wistar rats [2]; more responding under lowest dose under fixed-ratio schedule): greater potency
number of correct lever presses (M) (Male Wistar rats [3]; per-infusion dose 0.01 mg/kg): 53
post-reinforcement pause duration (M) (Male Wistar rats [3]; per-infusion dose 0.01 mg/kg): 225 s
number of correct lever presses (M) (Male Wistar rats [3]; per-infusion dose 0.05 mg/kg): 610
post-reinforcement pause duration (M) (Male Wistar rats [3]; per-infusion dose 0.05 mg/kg): 110 s
number of correct lever presses (M) (Male Wistar rats [3]; per-infusion dose 0.10 mg/kg): 933
post-reinforcement pause duration (M) (Male Wistar rats [3]; per-infusion dose 0.10 mg/kg): 179 s
number of correct lever presses (M) (Male Wistar rats [3]; per-infusion dose 0.50 mg/kg): 286
post-reinforcement pause duration (M) (Male Wistar rats [3]; per-infusion dose 0.50 mg/kg): 820 s
time to reach breakpoint (Male Wistar rats [3]; per-infusion dose 0.5 mg/kg, all except 2 sessions): ≤ 5 h
time to reach breakpoint (Male Wistar rats [3]; per-infusion doses at or below 0.1 mg/kg, all rats): less than 3 hrs
efficacy on drug-reinforced behavior compared with METH (Male Wistar rats [3]; more responding under optimal dose under a progressive-ratio schedule): greater efficacy
locomotor activity compared with vehicle (Male Wistar rats [4]; [20]): higher
AUC for activity, MDPV vs METH (Male Wistar rats [4]; [22]): significantly higher for MDPV than METH
resolution of high-dose suppression of locomotion (Male Wistar rats [4]): 120–150 minutes post-injection
duration of significant low-dose locomotor stimulation (Male Wistar rats [4]): 90 minutes post-injection
maximal increase of activity over baseline and/or vehicle (Male Wistar rats [4]): about 4 fold
effect on body temperature (Male Wistar rats [5]): modestly hyper-thermic; also recorded: negligible effect on temperature
body temperature compared to pre-injection baseline (Male Wistar rats [5]; [21]): higher
effect on rat body temperature at TA of 30°C (Male Wistar rats [5]; additional data, not shown): fails to significantly elevate rat body temperature
body temperature after 1.0 mg/kg compared with 5.6 mg/kg (Male Wistar rats [5]; s.c., TA 23±1 °C, 180-min post-injection time bin): higher
average cumulative dose when post-session stereotypy was not observed (M) (Male Wistar rats [7]): 0.6 mg/kg per one hour session
average cumulative dose when post-session stereotypy was observed (M) (Male Wistar rats [7]): 1.4 mg/kg per one hour session
time for which stereotypy scores were higher than vehicle (Male Wistar rats [8]; 0.5 mg/kg s.c.): 15 min
time for which stereotypy scores were higher than baseline (Male Wistar rats [8]; 0.5 mg/kg s.c., baseline immediately post-injection): 15 min
time for which stereotypy scores were higher than vehicle (Male Wistar rats [8]; 1.0 mg/kg s.c.): 60 min
time for which stereotypy scores were higher than baseline (Male Wistar rats [8]; 1.0 mg/kg s.c., baseline immediately post-injection): 60 min
time for which stereotypy scores were higher than vehicle (Male Wistar rats [8]; 3.2 mg/kg s.c.): entire session
time bins in which stereotypy scores were higher than baseline (Male Wistar rats [8]; 3.2 mg/kg s.c., baseline immediately post-injection): 15 to 135 min
time for which stereotypy scores were higher than vehicle (Male Wistar rats [8]; 5.6 mg/kg s.c.): entire session
IC50 [9]: 4.1 nM
IC50 [10]: 26 nM
IC50 [11]: 3350 nM
IC50 [12]: 31 nM
IC50 [13]: 44 nM
IC50 [14]: 9300 nM
DAT/SERT inhibition ratio (DAT/SERT): > 100
activity as monoamine releaser (monoamine release): ineffective as a monoamine releaser
doses at which stereotypies were reported (Sprague-Dawley rats): above 0.3 mg/kg
doses after which stereotypies are exhibited (mice): 1 to 3 mg/kg
Ki [15]: 166 nM
Ki (serotonin transporter): 1540 nM
